Assay results: PMC6278568, “Discovery of 3-Amino-2-Hydroxypropoxyisoflavone Derivatives as Potential Anti-HCV Agents” (Molecules, 2018)
Entries after “also recorded” stand apart in the source; their conditions may differ. Like-named read-outs stand apart in the source and are kept apart here.

Assays:
ava-5 cells = test: Cytotoxicity in Ava-5 cells (XTT method); assay type: cell-based; details: Ava-5 cells, 72 h, XTT method; read-out: CC50 (concentration causing a 50% growth inhibition of uninfected ava-5 cells)
Description: (§1) Compounds were dissolved in DMSO at 10 mM and then diluted in culture medium.
(§2) Ava5 cells, an engineered HCV subgenomic replicon cell line, were cultured in Dulbecco′s modified Eagle′s medium (DMEM) with 10% heat-inactivated fetal bovine serum, 1% antibiotic–antimycotic, and 1% non-essential amino acids. Ava5 cells were maintained in DMEM with 1 mg mL^−1 G418 to maintain the stable expression of replicon.
(§3) For cytotoxicity tests, run in parallel with antiviral assays, plates at an initial density of (5 × 10^3 cells/well) were treated with or without serial dilutions of test compounds. Cell viability was determined after 72 h at 37 °C in a humidified CO2 (5%) atmosphere by the (2,3-bis[2-methyloxy-4-nitro-5-sulfophenyl]-2H-tetrazolium-5-carboxanilide) (XTT) method.

HCV replication = test: Anti-HCV activity in Ava-5 HCV subgenomic replicon cells (firefly luciferase assay); assay type: cell-based, Hepatitis C virus; details: Ava-5 cells; for EC50: treated for three days, firefly luciferase assay, read-out: EC50 (concentration resulting in a 50% inhibition in virus production / HCV replication); for anti-HCV activity compared with ribavirin (in words): three days
Description: Ava-5 cells were treated with compounds 6a–i or the positive ribavirin for three days, and then analyzed through firefly luciferase assay. The concentration that inhibited 50% HCV replication (EC50), the concentration that inhibited 50% cell growth (CC50), and the selectivity index (SI: CC50/EC50) of compounds were determined with ribavirin as a positive control.
as §1, §2

HCV genotype 1b = details: cited from earlier work
HCV genotype 2a = details: cited from earlier work
HCV = details: cited from earlier work
[1] = Cytotoxicity in Ava-5 cells (XTT method); assay type: cell-based; details: human, Ava5 cells (HCV subgenomic replicon cell line); Ava-5 cells, 72 h, XTT method; read-out: CC50 (concentration causing a 50% growth inhibition of uninfected ava-5 cells)
Description: as §1, §2, §3

HO-1 protein expression = HO-1 protein expression in Ava-5 cells by western blotting; assay type: cell-based; details: 10 μM, 3 days, compared with DMSO-treated cells
Description: To determine whether compounds 6b, 6e, 6h and 6i have impact on HO-1 protein expression in Ava-5 cells, we treated these compounds at 10 μM in Ava5 cells.
Ava5 cells were seeded in 24-well plates at a density of 5 × 10^4 cells per well overnight and treated with indicated reagent at proper concentrations for 3 days. Cells were washed with cold phosphate buffer saline (PBS) and lysed by radioimmunoprecipitation assay (RIPA) lysis buffer (50 mM Tris-HCl, pH 7.5, 150 mM NaCl, 1% Nonidet P-40, 2 mM EDTA, 1 mM EGTA, 1 mM NaVO3, 10 mM NaF, 1 mM DTT, 1 mM PMSF, 25 μg/mL aprotinin, and 25 μg/mL leupeptin) and stored at −20 °C. The protein concentration was determined by the Bradford method. Ten μg protein were separated by 10% SDS-PAGE and transferred onto a polyvinylidene difluorid (PVDF) membrane. The membrane was blocked with 5% non-fat dried milk and incubated with specific antibodies against NS5B (1:5000; Abcam Cambridge, MA, USA), glyceraldehyde-3-phosphate dehydrogenase (GAPDH) and anti-HO-1 (1:3000, Abcam Cambridge, MA, USA). Antibodies were diluted in 5% milk containing Tris-buffered saline (TBS) and 0.5% Tween. The blotting signal was developed using an ECL detection kit (PerkinElmer, Norwalk, CT, USA) and was counted by the software Quantity One (Bio-Rad, Foster, CA, USA).
Compound 6b, 6e, 6h and 6i induced HO-1 protein expression. Ava-5 cells were treated with compounds at 10 μM for 3 days. The cell lysate was subjected to western blotting with anti-HO-1 and anti-GAPDH antibodies.

[2] = system: Nrf2 / ARE transactivation; test: ARE transactivation, p3xARE-Luc reporter in Ava-5 cells (luciferase assay); assay type: cell-based; details: p3xARE-Luc-transfected Ava-5 cells, 1 and 10 μM, 3 days
From the text: Heme oxygenase 1 expression is regulated by the transcription factors Nrf2, Keap1, and Bach1 through the binding of ARE in its promoter region; therefore, we determined whether isoflavones-mediated HO-1 induction was dependent on ARE transactivation by treating p3xARE-Luc-transfected ava-5 cells with increasing concentrations of […] for 3 days.
Ava5 cells were transfected with the HO-1 promoter-driven luciferase plasmid, pHO-1-Luc, using the T-pro^TM transfection reagent (Ji-Feng Biotechnology Co., Ltd., Taipei, Taiwan) according to the manufacturer′s instructions. The transfected cells were treated with compounds at various concentrations for 3 days. Each transfection complex contains 0.1 μg pSEAP, a secreted alkaline phosphatase (SEAP) expression vector, for normalization luciferase activity serving as a transfection control. The luciferase activity assay was performed using the Bright-Glo Luciferase assay system (Promega) (Madison, WI, USA) according to the manufacturer′s instructions.
Figure 6 Isoflavones inhibited HCV replication by upregulating Nrf2 expression. Compound 6b, 6e, 6h and 6i stimulated ARE transactivation in Ava-5 cells. The antioxidant response reporter plasmid, p3xARE-Luc, was transfected into Ava-5 cells and then treated with isoflavones (1 and 10 μM) for 3 days. The relative induction of antioxidant activity was determined by luciferase assay. The activity of untreated Ava-5 cells was considered to be 1.

Compound | melting point | CC50 at 72 h [1] | SI (selectivity index, CC50/EC50) (HCV replication) | EC50 (HCV replication; Hepatitis C virus, Ava5, 72 h) | further results
3-{{3-{[3-(3,4-Dimethoxyphenyl)-4-oxo-4H-chromen-7-yl]oxy}-2-hydroxypropyl}amino}-2-(1H-indol-3-yl)propanoic acid [Compound 6d] | – | – | – | – | CC50 (ava-5 cells): 98.8 ± 3.67 µM; EC50 (HCV replication): > 20 µM
c1ccc(Cn2c(-c3ccccc3)cc3c2CCCC3)cc1 [Compound 1, 1-benzyl-2-phenyl-4,5,6,7-tetrahydro-1H-indole] | – | – | – | – | EC50 (HCV genotype 1b): 7.9 µM; EC50 (HCV genotype 2a): 2.6 µM
CCOC(=O)C1C[C@@H]2/C(=N/Nc3ccccc3)CCCC[C@@H]2N1S(=O)(=O)c1ccc(C)cc1 (stereo partly drawn) [Compound 2, (3aS,8aS,E)-ethyl-4-(2-phenylhydrazono)-1-tosyldecahydro-cyclohepta[b]pyrrole-2-carboxylate] | – | – | – | – | EC50 (HCV genotype 1b): 1.8 µM; EC50 (HCV genotype 2a): 4.5 µM
O=c1c(O)c(-c2ccc(O)c(O)c2)oc2cc(OCc3cccc(Cl)c3)cc(O)c12 [Compound 3, 7-[(3-chlorobenzyl)oxy]-2-(3,4-dihydroxyphenyl)-3,5-dihydroxy-4H-chromen-4-one] | – | – | – | – | EC50 (HCV; anti-HCV evaluation of quercetin analogues): 3800 nM
COc1ccc(Nc2cc3oc(-c4ccco4)nc3c3ccccc23)cc1 [Compound 4, 2-(furan-2-yl)-N-(4-methoxyphenyl)naphtho[1,2-d]oxazol-5-amine] | – | – | – | – | EC50 (HCV; anti-HCV evaluation of naphtho[1,2-d]oxazole derivatives): 630 nM
COc1ccc(-c2coc3cc(OCC(O)CNCCc4ccc(O)cc4)ccc3c2=O)cc1OC (stereo not shown) [Compound 6a, 3-(3,4-Dimethoxyphenyl)-7-{2-hydroxy-3-[(4-hydroxyphenethyl)amino]propoxy}-4H-chromen-4-one] | 117 to 118 °C | 71.7 ± 4.44 µM | <3.58 | > 20 µM | –
COc1ccc(-c2coc3cc(OCC(O)CNCCc4c[nH]c5ccccc45)ccc3c2=O)cc1OC (stereo not shown) [Compound 6c, 7-{3-{[2-(1H-Indol-3-yl)ethyl]amino}-2-hydroxypropoxy}-3-(3,4-dimethoxyphenyl)-4H-chromen-4-one] | 178 to 179 °C | 36.9 ± 0.46 µM | 2.26 | 16.3 ± 0.95 µM | –
CCC(C)(C)NCC(O)COc1ccc2c(=O)c(-c3ccc(OC)c(OC)c3)coc2c1 (stereo not shown) [Compound 6e, 3-(3,4-Dimethoxyphenyl)-7-(2-hydroxy-3-(tert-pentylamino)propoxy)-4H-chromen-4-one] | – | 87.9 ± 2.13 µM | 10.80 | 8.14 ± 1.74 µM | HO-1 protein level (HO-1 protein expression): could induce HO-1 protein level; anti-HCV activity compared with ribavirin (in words) (HCV replication): more active than ribavirin; also recorded: higher anti-HCV effects than ribavirin; ARE-mediated luciferase activity [2]: increased ARE-mediated luciferase activity
COc1ccc(-c2coc3cc(OCC(O)CNC(C)(C)c4ccccc4)ccc3c2=O)cc1OC (stereo not shown) [Compound 6f, 3-(3,4-Dimethoxyphenyl)-7-{2-hydroxy-3-[(2-phenylpropan-2-yl)amino]propoxy}-4H-chromen-4-one] | 131 to 132 °C | 47.2 ± 2.74 µM | 3.30 | 14.3 ± 0.84 µM | –
COc1ccc(-c2coc3cc(OCC(O)CNC(C)(C)N4CCOCC4)ccc3c2=O)cc1OC (stereo not shown) [Compound 6g, 3-(3,4-Dimethoxyphenyl)-7-{2-hydroxy-3-[(2-morpholinopropan-2-yl)amino]propoxy}-4H-chromen-4-one] | – | 144 ± 3.82 µM | <7.17 | > 20 µM | –
COc1ccc(-c2coc3cc(OCC(O)CNC(C)(C)Cc4ccc(F)cc4)ccc3c2=O)cc1OC (stereo not shown) [Compound 6h, 3-(3,4-Dimethoxyphenyl)-7-{3-{[1-(4-fluorophenyl)-2-methylpropan-2-yl]amino}-2-hydroxypropoxy}-4H-chromen-4-one] | 151 to 152 °C | 111 ± 4.39 µM | 11.87 | 9.35 ± 0.97 µM | HO-1 protein level (HO-1 protein expression): could induce HO-1 protein level; anti-HCV activity compared with ribavirin (in words) (HCV replication): more active than ribavirin; also recorded: higher anti-HCV effects than ribavirin; ARE-mediated luciferase activity [2]: increased ARE-mediated luciferase activity
COc1ccc(-c2coc3cc(OCC(O)CNCC4(N5CCOCC5)CCCCC4)ccc3c2=O)cc1OC (stereo not shown) [Compound 6i, 3-(3,4-Dimethoxyphenyl)-7-{2-hydroxy-3-{[(1-morpholinocyclohexyl)methyl]amino}propoxy}-4H-chromen-4-one] | 67 to 68 °C | 156 ± 1.58 µM | 14.55 | 10.7 ± 0.87 µM | HO-1 protein level (HO-1 protein expression): could induce HO-1 protein level; anti-HCV activity compared with ribavirin (in words) (HCV replication): more active than ribavirin; also recorded: higher anti-HCV effects than ribavirin; ARE-mediated luciferase activity [2]: increased ARE-mediated luciferase activity
NC(=O)c1ncn([C@@H]2O[C@H](CO)[C@@H](O)[C@H]2O)n1 [ribavirin, reference compound] | – | 106 ± 3.69 µM | 8.08 | 13.2 ± 1.63 µM | –
